Reference: US12010991B1, “Microemulsion with disinfectant properties” (priority 2021, dated 2024)
Read-outs that look alike come from different tables or passages of the source.

Cc1ccc(C(C)C)cc1O [Example 2, Carvacerol]
H2O (clarity) (Solvent C8-10 Acid Ethanol, Surfactant/Solubilizer Polysorbate 20): Clear
H2O (clarity) (Solvent Ethanol, Surfactant/Solubilizer Polysorbate 20): Cloudy
H2O (clarity) (Solvent NONE, Surfactant/Solubilizer Polysorbate 20 Polysorbate 80): Clear
H2O (clarity) (Solvent NONE, Surfactant/Solubilizer Quat 242 Ti-Nat): Clear
H2O (clarity) (Solvent Propanediol, Surfactant/Solubilizer AB-1 (first entry)): Not Clear
H2O (clarity) (Solvent Propanediol, Surfactant/Solubilizer AB-1 (second entry)): Not Clear
H2O (clarity) (Solvent Propanediol, Surfactant/Solubilizer Polyglycerol): Not Clear
H2O (clarity) (Solvent Propanediol, Surfactant/Solubilizer Polyglycerol D9): Not Clear
H2O (clarity) (Solvent Propanediol, Surfactant/Solubilizer Polyglycerol D9 SugarNate): Not Clear
H2O (clarity) (Solvent Propanediol, Surfactant/Solubilizer Quat 242 Ti-Nat): Not Clear
H2O (clarity) (Solvent Propanediol, Surfactant/Solubilizer Quat 242 Ti-Nat AB-1): Not Clear
H2O (clarity) (Solvent Propanediol, Surfactant/Solubilizer SugaNate 160): Not Clear
